Legend:
[1] = mRNA encapsulation efficiency by RiboGreen assay; format: physicochemical; settings: FLuc mRNA-loaded LNP made with the lipid; for Encap)-sulation (%: Table 1
Method: (§1) The Firefly luciferase (FLuc) reporter mRNA-loaded lipid nanoparticles (LNPs) were formulated by NANOASSEMBLR® IGNITE™. Briefly, the lipid, cholesterol, 1,2-dimyristoyl-rac-glycero-3-methoxypolyethylene glycol-2000 (DMG-PEG2000), and […] (DSPC) mixture was prepared in ethanolic solution at the % mole ratio of […]. Three units of FLuc mRNA was dissolved in 25 mM sodium acetate pH 5.0 buffer and one unit of lipid mixture were rapidly combined in the microfluidic mixing cartridge at an amine-to-phosphate (N/P) ratio constant at 6, and the instrument flow rate set at 12 mL/min. The mRNA-LNPs performed a 40-fold dilution of calcium and magnesium-free phosphate-buffered saline (PBS) to reach pH neutral. Then, LNPs were concentrated using Amicon® Ultra-15 Centrifugal Filter Unit.
(§2) The mRNA-LNPs were characterized in terms of hydrodynamic size (z-average diameter), zeta potential, and polydispersity index by ZETASIZER™ PRO BLUE (MALVERN PANALYTICAL®). A QUANT-IT™ RIBOGREEN assay kit (THERMOFISHER®) was conducted to identify the mRNA concentration and encapsulation efficiency. In brief, mRNA-LNPs were diluted in equal volumes of Tris/EDTA (TE) buffer or 2% Triton X-100 in TE buffer. After that, a RIBOGREEN reagent was added to each sample and incubated at 37° C. in absence of light for 15 min. The fluorescence intensity (Ex/Em 480/520 nm) was detected on a TECAN™ Microplate reader. The encapsulation efficiency (E.E) can be calculated by the formula:
E.E(%)=(Total mRNA concentration−Unencapsulated mRNA concentration)/(Total mRNA concentration)×100%

[2] = LNP hydrodynamic size, polydispersity index and zeta potential by Zetasizer; format: physicochemical; settings: FLuc mRNA-loaded LNP
Method: as §1
as §2, with “formula: […]” for “formula:”

HEPG2 cells [3] = experiment: Cytotoxicity in HEPG2 cells (Cell Counting Kit-8); format: cell-based; settings: FLuc mRNA-LNPs, 18 hours
Method: (§3) To investigate the potential and cytotoxicity of mRNA-LNP made from novel lipids, FLuc mRNA (TRILINK®) was encapsulated into LNPs and transfected to the cell line. HEPG2 cells were maintained at 37° C. under 5% CO2 in a DMEM medium with 10% fetal bovine serum. Cells were seeded at 4×10^4 cells/well and treated with FLuc mRNA-LNPs for 18 hours while cell confluency reach 70%. To explore transfection efficiency, HEPG2 cells were treated with D-luciferin and mixed thoroughly for another incubation of 5 min at 37° C. The luminescence intensity was recorded using M200 Microplate Reader (TECAN®). Cell viability was evaluated by Cell Counting Kit-8 (SIGMA-ALDRICH®) and the absorbance was measured at 450 nm.

HEPG2 cells [4] = experiment: Transfection efficiency of FLuc mRNA-LNPs in HEPG2 cells (luminescence); format: cell-based; settings: 18 hours
Method: as §3

| SMILES | Encap)-sulation (% [1] [%] | LNP zeta potential (mV) ([2]; Table 1) | PDI ([2]; Table 1) | LNP size (nm) ([2]; z-average diameter, Table 1) | Encapsulation (%) ([1]; Table 2) | LNP size (nm) ([2]; Table 2) | LNP zeta potential (mV) ([2]; Table 2) | PDI ([2]; Table 2) | Cytotoxicity in HEPG2 (HEPG2 cells [3]) | Transfection efficiency (relative to SM-102, %) (HEPG2 cells [4]) [%] |
| --- | --- | --- | --- | --- | --- | --- | --- | --- | --- | --- |
| CCCCCCCCC(CCCCCCCC)OC(=O)CCO[C@H]1CN(CCO)C[C@H]1OCCC(=O)OC(CCCCCCCC)CCCCCCCC [Compound 1, di(heptadecan-9-yl)3,3′-(((3R,4S)-1-(2-hydroxyethyl)pyrrolidine-3,4-diyl)bis(oxy))dipropionate] | 98.5 | −7.06 | 0.026 | 73.80 |  |  |  |  |  |  |
| CCCCCCCCC(CCCCCCCC)OC(=O)CCO[C@H]1CN(CCCO)C[C@H]1OCCC(=O)OC(CCCCCCCC)CCCCCCCC [Compound 2] | 98.1 | −5.73 | 0.033 | 74.65 |  |  |  |  |  |  |
| CCCCCCCCC(CCCCCCCC)OC(=O)CCCCO[C@H]1CN(CCCO)C[C@H]1OCCCCC(=O)OC(CCCCCCCC)CCCCCCCC [Compound 3, di(heptadecan-9-yl)5,5′-(((3S,4R)-1-(3-hydroxypropyl)pyrrolidine-3,4-diyl)bis(oxy))dipentanoate] | 97.92 | 6.98 | 0.016 | 98.84 |  |  |  |  |  |  |
| CCCCCCCCC(CCCCCCCC)OC(=O)CCCCO[C@H]1CN(CCO)C[C@H]1OCCCCC(=O)OC(CCCCCCCC)CCCCCCCC [Compound 4, di(heptadecan-9-yl)5,5′-(((3S,4R)-1-(2-hydroxyethyl)pyrrolidine-3,4-diyl)bis(oxy))dipentanoate] | 98.43 | 1.03 | 0.015 | 79.20 |  |  |  |  |  |  |
| CCCCCCCCC(CCCCCCCC)OC(=O)CCO[C@H]1CN(CCCCO)C[C@H]1OCCC(=O)OC(CCCCCCCC)CCCCCCCC [Compound 7, di(heptadecan-9-yl)3,3′-(((3R,4S)-1-(4-hydroxybutyl)pyrrolidine-3,4-diyl)bis(oxy))dipropionate] | 97.22 | 2.41 | 0.025 | 87.10 |  |  |  |  |  |  |
| CCCCCCCCC(CCCCCC)C(=O)OCCCCCCO[C@H]1CN(CCCO)C[C@H]1OCCCCCCOC(=O)C(CCCCCC)CCCCCCCC (stereo partly drawn) [Compound 14, (((3S,4R)-1-(3-hydroxypropyl)pyrrolidine-3,4-diyl)bis(oxy))bis(hexane-6,1-diyl)bis(hexyldecanoate)] |  |  |  |  |  |  |  |  | — (The toxicity of compounds 11 and 14 is less than 10%) | 105 |

Further lines, with some results ahead:

| Encap)-sulation (% [1] [%] | LNP zeta potential (mV) ([2]; Table 1) | PDI ([2]; Table 1) | LNP size (nm) ([2]; z-average diameter, Table 1) | Encapsulation (%) ([1]; Table 2) | LNP size (nm) ([2]; Table 2) | LNP zeta potential (mV) ([2]; Table 2) | PDI ([2]; Table 2) | SMILES | Cytotoxicity in HEPG2 (HEPG2 cells [3]) | Transfection efficiency (relative to SM-102, %) (HEPG2 cells [4]) [%] |
| --- | --- | --- | --- | --- | --- | --- | --- | --- | --- | --- |
| 97.58 | 10.95 | 0.014 | 80.71 | 97.58 | 80.71 | 10.95 | 0.014 | CCCCCCCCC(CCCCCCCC)OC(=O)CCCCCO[C@H]1CN(CCCO)C[C@H]1OCCCCCC(=O)OC(CCCCCCCC)CCCCCCCC [Compound 11, di(heptadecan-9-yl)6,6′-(((3R,4S)-1-(3-hydroxypropyl)pyrrolidine-3,4-diyl)bis(oxy))dihexanoate] | — (The toxicity of compounds 11 and 14 is less than 10%) | 100 |
| 96.99 | 7.83 | 0.039 | 78.35 |  |  |  |  | CCCCCCCCC(CCCCCCCC)OC(=O)CCCCCO[C@H]1CN(CCCCCO)C[C@H]1OCCCCCC(=O)OC(CCCCCCCC)CCCCCCCC [Compound 12, di(heptadecan-9-yl)6,6′-(((3R,4S)-1-(5-hydroxypentyl)pyrrolidine-3,4-diyl)bis(oxy))dihexanoate] |  |  |
| 97.39 | 12.45 | 0.046 | 81.29 |  |  |  |  | CCCCCCCCC(CCCCCCCC)OC(=O)CCCCCO[C@H]1CN(CCCCO)C[C@H]1OCCCCCC(=O)OC(CCCCCCCC)CCCCCCCC [Compound 13, di(heptadecan-9-yl)6,6′-(((3R,4S)-1-(4-hydroxybutyl)pyrrolidine-3,4-diyl)bis(oxy))dihexanoate] |  |  |
| 98.16 | 8.00 | 0.03 | 95.10 |  |  |  |  | CCCCCCCCCCC(CCCCCCCC)COC(=O)CCCCO[C@H]1CN(CCCO)C[C@H]1OCCCCC(=O)OCC(CCCCCCCC)CCCCCCCCCC (stereo partly drawn) [Compound 17, bis(2-octyldodecyl)5,5′-(((3R,4S)-1-(3-hydroxypropyl)pyrrolidine-3,4-diyl)bis(oxy))dipentanoate] |  |  |
| 97.57 | 9.52 | 0.03 | 86.61 |  |  |  |  | CCCCCCCCCCC(CCCCCCCC)COC(=O)CCCCO[C@H]1CN(CCCCCO)C[C@H]1OCCCCC(=O)OCC(CCCCCCCC)CCCCCCCCCC (stereo partly drawn) [Compound 18, bis(2-octyldodecyl)5,5′-(((3R,4S)-1-(5-hydroxypentyl)pyrrolidine-3,4-diyl)bis(oxy))dipentanoate] |  |  |
| 97.31 | 6.25 | 0.05 | 79.74 |  |  |  |  | CCCCCCCCCCC(CCCCCCCC)COC(=O)CCCCO[C@H]1CN(CCCCCCO)C[C@H]1OCCCCC(=O)OCC(CCCCCCCC)CCCCCCCCCC (stereo partly drawn) [Compound 19, bis(2-octyldodecyl)5,5′-(((3R,4S)-1-(6-hydroxyhexyl)pyrrolidine-3,4-diyl)bis(oxy))dipentanoate] |  |  |
| 97.36 | 15.00 | 0.06 | 88.33 |  |  |  |  | CCCCCCC(CCCC)COC(=O)CCCCO[C@H]1CN(CCCO)C[C@H]1OCCCCC(=O)OCC(CCCC)CCCCCC (stereo partly drawn) [Compound 20, bis(2-butyloctyl) 5,5′-(((3R,4S)-1-(3-hydroxypropyl)pyrrolidine-3,4-diyl)bis(oxy))dipentanoate] |  |  |
| 98.87 | 14.91 | 0.0532 | 93.39 |  |  |  |  | CCCCCCC(CCCC)COC(=O)CCCCO[C@H]1CN(CCCCCO)C[C@H]1OCCCCC(=O)OCC(CCCC)CCCCCC (stereo partly drawn) [Compound 21, bis(2-butyloctyl) 5,5′-(((3R,4S)-1-(5-hydroxypentyl)pyrrolidine-3,4-diyl)bis(oxy))dipentanoate] |  |  |
| 98.18 | 10.78 | 0.05 | 148.20 |  |  |  |  | CCCCCCC(CCCC)COC(=O)CCCCO[C@H]1CN(CCCCCCO)C[C@H]1OCCCCC(=O)OCC(CCCC)CCCCCC (stereo partly drawn) [Compound 22, bis(2-butyloctyl) 5,5′-(((3R,4S)-1-(6-hydroxyhexyl)pyrrolidine-3,4-diyl)bis(oxy))dipentanoate] |  |  |

Reference: US20250034088A1, “LIPIDS AND USES THEREOF” (TAIWAN BIO-MANUFACTURING CORPORATION, priority 2023, published 2025)
